Assays:
COL1A1 promotor = COL1A1 promotor luciferase reporter gene assay in TGF-β1-treated LX-2 cells; format: cell-based, human; conditions: Homo sapiens; for inhibition at 40 µM / inhibition at 80 µM: LX-2, 24 h; for inhibition at 40 µM: 24 h with TGF-β1, read-out: Inhibition Percentage 40 μM (inhibition rate of COL1A1 promotor's activity); for inhibition at 80 µM: 24 h with TGF-β1, read-out: Inhibition Percentage 80 μM (inhibition rate of COL1A1 promotor's activity); for IC50: read-out: IC50 (concentration required to inhibit 50% of COL1A1 promotor's activity)
Procedure: A single luciferase reporter gene detection model was applied to evaluate the inhibitory effects of all target compounds on the expression of COL1A1 promotor in human hepatic stellate LX-2 cells at the concentrations of 40 and 80 μM, taking EGCG as the positive control. The LX-2 cell lines were transfected with COL1A1 promotor luciferase plasmid pGL4.17-COL1A1P for 24 h, then simultaneously treated with TGF-β1 and a tested compound for 24 h.
(§1) Cells were maintained on Dulbecco’s Modified Eagle’s medium (DMEM), laid on 96-well plate. DMEM medium was supplemented with 10% fetal bovine serum (FBS) at 37 °C humidified atmosphere with 5% CO2. Furthermore, serum-free culture was required until the cells were confluent at 90−95%. 24 h later the cells were treated with a tested compound (40 and 80 μM) for 24 h. The COL1A1 promotor activity was detected by the Bright-Glo luciferase assay system. Alternatively, to test the acute effects of compound on luciferase activity, 24 h later the cells were lysed and the lysate was treated with a tested compound (80 μM) for 2 h, then the luciferase was detected by the Bright-Glo luciferase assay system (Promega, Madison, WI, USA).

luciferase = target: T1, luciferase (Photinus pyralis, UniProt P08659, K549A/L550V/N119G/N50D/S548I); assay: Acute effect on luciferase activity (cell lysate, 2 h); format: biochemical; conditions: 80 μM, 2-h treatment
T1 construct: expressed in transfected cells; host or cells: human hepatic stellate LX-2 cells transfected with pGL4.17-COL1A1P; lysate used
T1 sequence (P08659 whole entry N50D/N119G/S548I/K549A/L550V): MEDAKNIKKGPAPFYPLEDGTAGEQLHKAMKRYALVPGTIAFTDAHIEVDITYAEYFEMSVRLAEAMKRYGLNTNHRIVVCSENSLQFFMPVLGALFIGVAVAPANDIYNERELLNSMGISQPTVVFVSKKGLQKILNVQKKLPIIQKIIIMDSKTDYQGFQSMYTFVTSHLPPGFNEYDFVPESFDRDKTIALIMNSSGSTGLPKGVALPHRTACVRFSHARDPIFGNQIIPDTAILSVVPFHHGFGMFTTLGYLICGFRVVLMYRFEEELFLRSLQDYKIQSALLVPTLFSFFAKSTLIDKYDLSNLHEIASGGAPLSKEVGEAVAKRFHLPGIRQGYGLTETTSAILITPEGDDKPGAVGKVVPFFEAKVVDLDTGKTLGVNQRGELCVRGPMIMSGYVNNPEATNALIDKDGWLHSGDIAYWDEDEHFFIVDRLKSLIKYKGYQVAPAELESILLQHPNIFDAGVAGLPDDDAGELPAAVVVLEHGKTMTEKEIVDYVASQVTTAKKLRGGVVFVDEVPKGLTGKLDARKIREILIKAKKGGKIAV
Procedure: Then, their anti-COL1A1 potencies were verified by testing the half maximal inhibition concentration (IC50) values upon COL1A1 expression expression in LX-2 cells. […] Then, compounds 4i, 4n and 4p with the lower IC50 values were selected as the key compounds for further studies.
as §1

[1] = HepG2 cell survival, MTT assay; format: cell-based; conditions: human, HepG2 cells
Procedure: HepG2 cell survival was measured by MTT assay. HepG2 cells, at density of 6x10^3 cells/well in 96-well culture plates, were incubated with the aloperine derivates at various concentrations until the cells at 50% confluence for 24 h. 20 µL of the MTT (5 mg/mL) solution was added to each plate and incubated with 5% CO2, 37 °C for 4 h. Subsequently, withdrawing the culture supernatant containing MTT, 150 µL DMSO was used for dissolving the formazan crystal. The absorbance was measured using a microplate reader at 570 nm.

COL1A1 mRNA = assay: RT-PCR of COL1A1 mRNA in LX-2 cells; format: cell-based, human; conditions: 24 h
Procedure: (§2) In the absence or presence of TGF-β1 (2 ng/mL) treatment, LX-2 cells were treated with key compounds 4n and 4p at concentrations of 6 μM and 12 μM, or 4i at a concentration of 12 μM, respectively.
LX-2 cells were laid on 6-well plate and cultured in DMEM supplemented with 10% fetal bovine serum (FBS) in a 5% CO2 atmosphere at 37 °C. And serum-free culture was required until the cells reached 90−95% confluence. […] Total RNA of the LX-2 cells was isolated using TRIzol reagent, purified using NucleoSpin RNA Clean-up. Reverse transcription was performed with Transcriptor first strand cDNA synthesis kit. Subsequently, the cDNA levels was determined by ABI 7500 Fast Real-Time PCR System using TaqMan probes of COL1A1, TGF-β1, α-SMA, and GAPDH (sequence not disclosed by ABI) and FastStart Universal Probe master mix (Roche, Indianapolis, IN, USA).

TGFB1 mRNA = assay: RT-PCR of TGFB1 mRNA in LX-2 cells; format: cell-based, human; conditions: TGF-β1 (2 ng/mL) stimulation, 24 h
Procedure: as §2
Since the stimulation of TGF-β1 provokes the expression of a series of fibrosis genes, for example COL1A1 and TGFB1 [24, 25], the effects of key compounds on TGF-β1 expression were evaluated by RT-PCR and western blot assays. As shown in Figure 2B and Supplementary Table S1, the expression of TGFB1 mRNA was maintained at a low level, and the addition of a key compound seemed to have little effect on its expression.
LX-2 cells were laid on 6-well plate and cultured in DMEM supplemented with 10% fetal bovine serum (FBS) in a 5% CO2 atmosphere at 37 °C. And serum-free culture was required until the cells reached 90−95% confluence. After 24 h, cells were incubated with […] concentrations of aloperine derivatives in the presence of 2 ng/mL of TGF-β1 for 24 h. Total RNA of the LX-2 cells was isolated using TRIzol reagent, purified using NucleoSpin RNA Clean-up. Reverse transcription was performed with Transcriptor first strand cDNA synthesis kit. Subsequently, the cDNA levels was determined by ABI 7500 Fast Real-Time PCR System using TaqMan probes of COL1A1, TGF-β1, α-SMA, and GAPDH (sequence not disclosed by ABI) and FastStart Universal Probe master mix (Roche, Indianapolis, IN, USA).

TGF-β1 protein = assay: Western blot of TGF-β1 protein in LX-2 cells; format: cell-based, human; conditions: 24 h
Procedure: At the meantime, the addition of TGF-β1 also stimulated the expression of TGF-β1 on protein level, as shown in Figure 3A–C and Supplementary Table S2.
(§3) LX-2 cells were cultured as described above. Cells were washed with phosphate-buffered saline (PBS) and were resuspended by radioimmunoprecipitation assay (RIPA) lysis buffer for 30 min in 4 °C; the supernatant was collected after centrifugation at 12000 g for 15 min at 4 °C. Subsequently, equal amounts of protein were quantified with Bradford assay, separated using SDS-PAGE and transferred onto polyvinylidene difluoride membrane. The membranes were blocked with 5% milk in PBST for 1 h, and probed with specific primary antibodies overnight at room temperature. The membrane was washed three times by PBST, and probed with horseradish peroxidase-conjugated secondary antibodies and GAPDH. The proteins were visualized by chemiluminescence reagents. Antibodies used in western blot analysis were obtained from Abcam (Cambridge, UK): anti-collagen 1 (ab34710), anti-TGF beta 1 antibody (ab179695), anti-alpha smooth muscle actin (ab32575) and Cell Signaling Technology (Danvers, MA, USA): GAPDH (D16H11) Rabbit mAb (5174).

α-SMA protein = assay: Western blot of α-SMA protein in LX-2 cells; format: cell-based, human; conditions: with TGF-β1, 6 and 12 μM, 24 h
Procedure: Stellate cell activation is a key process for liver fibrogenesis, and α-SMA expression, induced by a stimulation of TGF-β1 or other factors, is considered a reliable marker of hepatic stellate cell activation and a key biomarker for liver fibrosis. Therefore, the expression of α-SMA was also investigated. As presented in Figure 3A–C and Supplementary Table S2, in our experiments, the addition of TGF-β1 stimulated the expression of α-SMA on protein level as expected.
as §3, with “Antibodies used in western blot analysis were obtained from Abcam (Cambridge, UK): anti-collagen 1 (ab34710), anti-TGF beta 1 antibody (ab179695), anti-alpha smooth muscle actin (ab32575) and Cell Signaling Technology (Danvers, MA, USA): GAPDH (D16H11) Rabbit mAb (5174).” left out

[2] = TGF-β1 (2 ng/mL) stimulation, 6 μM
[3] = TGF-β1 (2 ng/mL) stimulation, 12 μM

Row | SMILES | inhibition at 40 µM (COL1A1 promotor) [%] | inhibition at 80 µM (COL1A1 promotor) [%] | IC50 (COL1A1 promotor) [µM] | Acute effect on luciferase activity (luciferase) | CC50 at 24 h [1] [µM] | Inhibitory rate of COL1A1 transcription (mRNA) (COL1A1 mRNA; [2]) [%] | Inhibitory rate of COL1A1 transcription (mRNA) (COL1A1 mRNA; [3]) [%] | Inhibitory rate of COL1A1 transcription (mRNA) (COL1A1 mRNA; absence of TGF-β1, 6 μM) [%] | Inhibitory rate of COL1A1 transcription (mRNA) (COL1A1 mRNA; absence of TGF-β1, 12 μM) [%] | Inhibitory rate of TGFB1 mRNA expression (TGFB1 mRNA; 6 μM) [%] | Inhibitory rate of TGFB1 mRNA expression (TGFB1 mRNA; 12 μM) [%] | Inhibition rate of TGF-β1 protein expression (TGF-β1 protein; with TGF-β1, 6 μM) [%] | Inhibition rate of TGF-β1 protein expression (TGF-β1 protein; with TGF-β1, 12 μM) [%] | Inhibition of α-SMA expression on protein level (α-SMA protein)
1 | O=C(CN1CCCC2=C[C@H]3C[C@H](CN4CCCC[C@H]34)[C@@H]21)N(c1ccccc1)c1ccc2ccccc2c1 [4n, 12N-(N’-(Naphthalen-2-yl)-N’-phenyl)carbamoylmethyl aloperine] | 99.9 ± 0.1 | 100 | 13.3 ± 0.5 | minimal inhibition | 35.2 ± 4.1 | 76.0 | 84.5 | 42 | 47 | 57.7 | 60.0 | 14.6 | 61.0 | dose-dependent inhibition
2 | O=C(CN1CCCC2=C[C@H]3C[C@H](CN4CCCC[C@H]34)[C@@H]21)N1c2ccccc2Oc2ccccc21 [4p, 12N-N′-Phenoxazinylcarbamoylmethyl aloperine] | 72.2 ± 1.5 | 99.1 ± 1 | 16.5 ± 0.4 | minimal inhibition | 43.7 ± 2.7 | 99.5 | 102.9 | 38 | 42 | 60.8 | 63.8 | 20.8 | 135.4 | dose-dependent inhibition

Source: paper PMC7663597, “Structure–Activity Relationship of Aloperine Derivatives as New Anti–Liver Fibrogenic Agents” (Molecules, 2020)
